According to patent US20180118718A1, “Substituted Quinoxaline Derivatives” (Selvita S.A., priority 2015, published 2018):

Target: T1, Human recombinant His-tagged PFKFB3 (Homo sapiens, UniProt Q16875)
T1 construct: His; made in house
Assay: PFKFB3 IC50 Determination Assay (in vitro kinase assay, modified ADP-Glo system)
Format: biochemical
Settings: ATP 20 μM and fructose-6-phosphate 2 μM (Km), 25 nM PFKFB3, 2 h, rt, ADP-Glo luminescence
In short: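 In-house His-tagged human PFKFB3 phosphorylates fructose-6-phosphate with ATP and substrate at Km; ADP measured by luminescence with 5x-diluted ADP-Glo reagents. Compounds tested at 10 concentrations, routinely 100 μM to 1 nM, in duplicate, 6.7% final DMSO. Data normalized to no-substrate control, expressed as % positive control; IC50 by four-parameter fit.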

T1 sequence (Q16875 whole entry): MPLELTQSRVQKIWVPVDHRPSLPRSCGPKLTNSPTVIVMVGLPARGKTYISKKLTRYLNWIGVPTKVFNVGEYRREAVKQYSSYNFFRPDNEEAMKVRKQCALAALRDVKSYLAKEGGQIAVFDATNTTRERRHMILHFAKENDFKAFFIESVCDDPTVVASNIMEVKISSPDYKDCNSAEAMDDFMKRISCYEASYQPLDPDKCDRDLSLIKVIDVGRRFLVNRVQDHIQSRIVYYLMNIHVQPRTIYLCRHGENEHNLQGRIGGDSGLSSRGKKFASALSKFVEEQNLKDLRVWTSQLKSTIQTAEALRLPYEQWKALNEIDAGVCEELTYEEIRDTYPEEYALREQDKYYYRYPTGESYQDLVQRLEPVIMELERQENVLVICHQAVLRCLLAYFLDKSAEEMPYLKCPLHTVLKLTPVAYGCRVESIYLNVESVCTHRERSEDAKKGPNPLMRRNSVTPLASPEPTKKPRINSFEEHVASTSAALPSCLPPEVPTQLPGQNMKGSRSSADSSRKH

| SMILES | IC50 |
| --- | --- |
| CCc1cc(CC)cc(-c2cc(Nc3cnccc3S(C)(=O)=O)cc3nccnc23)c1 [Example 192, 8-(3,5-Diethylphenyl)-N-(4-methanesulfonylpyridin-3-yl)quinoxalin-6-amine] | 1000 to 10000 nM |
| Cc1cc2ccn(C)c2cc1-c1cc(Nc2cnccc2S(C)(=O)=O)cc2nccnc12 [Example 195, 8-(1,5-Dimethyl-1H-indol-6-yl)-N-(4-methanesulfonylpyridin-3-yl)quinoxalin-6-amine] | 1 to 1000 nM |
| Cn1ccc2ccc(-c3cc(Oc4cnccc4C(=O)O)cc4nccnc34)cc21 [Example 198, 3-{[8-(1-methyl-1H-indol-6-yl)quinoxalin-6-yl]oxy}pyridine-4-carboxylic acid] | 10000 to 100000 nM |
| Cc1csc2ccc(-c3cc(Nc4ccccc4S(=O)(=O)NC4CCN(C)C4)cc4nccnc34)cc12 (stereo not shown) [Example 199, 2-{[8-(3-Methyl-1-benzothiophen-5-yl)quinoxalin-6-yl]amino}-N-(1-methylpyrrolidin-3-yl)benzene-1-sulfonamide] | 1 to 1000 nM |
| CC(=O)Nc1cc2cc(-c3cc(Nc4cnccc4S(C)(=O)=O)cc4nccnc34)ccc2s1 [Example 200, N-(5-{7-[(4-Methanesulfonylpyridin-3-yl)amino]quinoxalin-5-yl}-1-benzothiophen-2-yl)acetamide] | 1000 to 10000 nM |
| CN(C)c1nc2cc(-c3cc(Nc4cnccc4S(C)(=O)=O)cc4nccnc34)ccc2s1 [Example 201, 8-[2-(Dimethylamino)-1,3-benzothiazol-5-yl]-N-(4-methanesulfonylpyridin-3-yl)quinoxalin-6-amine] | 10000 to 100000 nM |
| CNc1nc2cc(-c3cc(Nc4cnccc4S(C)(=O)=O)cc4nccnc34)ccc2s1 [Example 202, N-(4-Methanesulfonylpyridin-3-yl)-8-[2-(methylamino)-1,3-benzothiazol-5-yl]quinoxalin-6-amine] | 1000 to 10000 nM |
| Cn1ccc2ccc(-c3cc(Nc4ncncc4Br)cc4nccnc34)cc21 [Example 204, N-(5-Bromopyrimidin-4-yl)-8-(1-methyl-1H-indol-6-yl)quinoxalin-6-amine] | 10000 to 100000 nM |
| Cc1csc2ccc(-c3cc(Nc4cnccc4C(N)=O)cc4nccnc34)cc12 [Example 205, 3-{[8-(3-Methyl-1-benzothiophen-5-yl)quinoxalin-6-yl]amino}pyridine-4-carboxamide] | 1 to 1000 nM |
| CC(=O)N1CC(NC(=O)c2ccncc2Nc2cc(-c3ccc4scc(C)c4c3)c3nccnc3c2)C1 [Example 206, N-(1-Acetylazetidin-3-yl)-3-{[8-(3-methyl-1-benzothiophen-5-yl)quinoxalin-6-yl]amino}pyridine-4-carboxamide] | 1 to 1000 nM |
| Cn1ccc2ccc(-c3cc(Nc4cnccc4C(=O)Nc4cccnc4)cc4nccnc34)cc21 [Example 207, 3-{[8-(1-Methyl-1H-indol-6-yl)quinoxalin-6-yl]amino}-N-(pyridin-3-yl)pyridine-4-carboxamide] | 1 to 1000 nM |
| Cn1ccc2ccc(-c3cc(Nc4ccccc4S(=O)(=O)NC4CCCOC4)cc4nccnc34)cc21 (stereo not shown) [Example 209, 2-{[8-(1-Methyl-1H-indol-6-yl)quinoxalin-6-yl]amino}-N-(oxan-3-yl)benzene-1-sulfonamide] | 1 to 1000 nM |
| CS(=O)(=O)c1ccncc1Nc1cc(-c2ccc(Br)c(F)c2)c2nccnc2c1 [Example 211, 8-(4-Bromo-3-fluorophenyl)-N-(4-methanesulfonylpyridin-3-yl)quinoxalin-6-amine] | 1 to 1000 nM |
| Cc1cc(Br)ccc1-c1cc(Nc2cnccc2S(C)(=O)=O)cc2nccnc12 [Example 212, 8-(4-Bromo-2-methylphenyl)-N-(4-methanesulfonylpyridin-3-yl)quinoxalin-6-amine] | 1 to 1000 nM |
| CS(=O)(=O)c1ccncc1Nc1cc(-c2ccc(S(F)(F)(F)(F)F)cc2)c2nccnc2c1 [Example 213, N-(4-Methanesulfonylpyridin-3-yl)-8-[4-(pentafluoro-λ^6-sulfanyl)phenyl]quinoxalin-6-amine] | 10000 to 100000 nM |
| CN1CCC(NC(=O)c2ccncc2Nc2cc(-c3ccc(Br)cc3)c3nccnc3c2)C1 (stereo not shown) [Example 215, 3-{[8-(4-Bromophenyl)quinoxalin-6-yl]amino}-N-(1-methylpyrrolidin-3-yl)pyridine-4-carboxamide] | 1 to 1000 nM |
